Patent publication US12509451B2, “Heteroaryl amide inhibitors of CD38” (NAPA THERAPEUTICS LTD., priority 2020, dated 2025)

What was measured:
[1] = target: T1, recombinant mouse CD38 Protein (Mus musculus, UniProt P56528); test: Fluorescence-based NAD+ cyclase activity assay with mouse recombinant CD38 protein (Assay 4); assay type: biochemical; settings: read-out: Assay 4 Arithmetic mean IC50
T1 construct: purchased R&D System
T1 sequence (P56528 1-304): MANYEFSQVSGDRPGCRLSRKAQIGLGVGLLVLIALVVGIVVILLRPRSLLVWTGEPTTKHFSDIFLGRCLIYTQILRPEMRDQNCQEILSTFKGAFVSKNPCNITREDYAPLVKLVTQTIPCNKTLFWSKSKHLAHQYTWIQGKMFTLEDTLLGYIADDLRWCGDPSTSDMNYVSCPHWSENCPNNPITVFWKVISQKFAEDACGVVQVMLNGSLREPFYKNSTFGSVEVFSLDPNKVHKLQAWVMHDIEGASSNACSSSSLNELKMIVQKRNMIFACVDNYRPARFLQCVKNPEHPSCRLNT
Experimental: This protocol was modified from de Oliveira et al. (2018) supra.
(§1) NAD+ cyclase activity of the human recombinant CD38 protein treated with test compounds was measured using a fluorescence-based assay. Briefly, recombinant mouse CD38 Protein (R&D System) was resuspended in 44 μl/well of Sucrose-Tris Buffer (Sucrose 0.25 M, Tris pH 7.4 40 mM) and plated in a 96-well black plate (CORNING) at a density of 32 ng/well.
(§2) Each test compound was received in a powder state and dissolved in DMSO as a 25 mM stock solution. Each test compound was serially diluted in order to generate a dose-response curve. The dilution series of each test compound in DMSO was prepared at 50 times the concentrations to be assayed. Each test compound was diluted to generate a 5-fold dilution series of 8 concentrations from 100 μM to 32 nM in order to assay 8 final concentrations ranging from 2 μM to 0.64 nM. One μl of the 50× concentration compound series was added to each well of the plate containing 125 ng of protein in Sucrose-Tris buffer.
Each plate had the following intra plate controls: 3 wells containing cells treated with vehicle only (DMSO), 3 wells of cells treated with the reference compounds 78c at a final concentration of 500 nM and 2 wells containing only Sucrose-Tris buffer (used as a background value).
The reaction was started adding nicotinamide guanine dinucleotide (NGD+) (Sigma Aldrich) to reach a final concentration of 150 µM. The samples were excited at 337-15 nm and the emission of fluorescence was measured at 442-20 nm at 37° C. every minute for 1 hr in a Clariostar® microplate reader (BMG LABTECH). NAD+ cyclase activity was calculated as the slope of the linear portion of the fluorescence-time curve using the MARS data analysis software (BMG LABTECH). The data were uploaded in the Collaborative Drug Design (CDD) Software and for each compound the IC50 was calculated by the software. Each compound was tested in 3 independent experiments on 3 separate days to establish the reproducibility of the results. For each plate, the z-factor was also calculated as a plate quality using the CDD software.

[2] = target: T1, recombinant mouse CD38 Protein; test: Fluorescence-based NAD+ hydrolase activity assay with mouse recombinant CD38 protein (Assay 5); assay type: biochemical; settings: read-out: Assay 5 Arithmetic mean IC50
Experimental: This protocol was modified from the following references: Muller et al. (1983); Schultz et al. (2018); Matalonga et al. (2017); and de Oliveira et al. (2018), supra.
as §1, with “hydrolase” for “cyclase”, “mouse” for “human”, “96 well” for “96-well”, “2.5” for “32”
as §2, with “20” for “100”, “0.256” for “32”, “400 nM” for “2 μM”, “25.6 pM.” for “0.64 nM.”, “2.5” for “125”
Each plate had the following intra plate controls: 3 wells containing cells treated with vehicle only (DMSO), 3 wells of cells treated with the reference compounds 78c at a final concentration of 50 nM and 2 wells containing only Sucrose-Tris buffer (used as a background value).
The reaction was started adding nicotinamide 1,N^6-etheno-adenine dinucleotide (Sigma Aldrich) to reach a final concentration of 80 µM. The samples were excited at 321-15 nm and the emission of fluorescence was measured at 410-20 nm at 37° C. every minute for 1 hr in a Clariostar Microplate® reader (BMG LABTECH). NAD+ hydrolase activity was calculated as the slope of the linear portion of the fluorescence-time curve using the MARS data analysis software (BMG LABTECH). The data were uploaded in the Collaborative Drug Design (CDD) Software and for each compound the IC50 was calculated by the software. Each compound was tested in 3 independent experiments on 3 separate days to establish the reproducibility of the results. For each plate, the z-factor was also calculated as a plate quality using the CDD software.

IC50 [1]: 51 to 1000 nM | IC50 [2]: 1 to 50 nM
SMILES: CC1(Oc2cc(C(=O)Nc3ccnc(C(F)(F)F)c3)nc(-n3ccnc3)n2)COC1 [Compound 41]
